# Measured values taken from PMC4061505 (Anesthesiology, 2014).
# Where “and” joins values, the source holds several entries; their conditions need not be identical. Equal entries are not always repeated. Where two headings read alike, the source gives them in different places.
# Tests used:
# anesthesia = conditions: cited from earlier work
# α3β4-nAChR = conditions: cited from earlier work; for IC50: α3β4-nAChR
# [1] = system: mTOR and related proteins; assay: Western blot of phosphorylated mTOR and related proteins in rat brain; conditions: 20 mg·kg^−1 intravenous; for Increase in phosphorylation of mTOR and its downstream targets: rat pre-frontal cortex, 60-min post-administration, p<0.05
# [2] = system: monomeric serine racemase (m-SR); assay: Expression of monomeric serine racemase protein in PC-12 cells; format: cell-based, rat; conditions: for Concentration of maximum increase in m-SR protein expression: gradual decline at higher concentrations
# mTOR pathway = assay: pmTOR, pAkt, pERK, p4E-BP1 and pp70S6K levels in PC-12 cells; format: cell-based, rat
# [3] = Brain tissue concentrations after administration to male Wistar rats
# [4] = system: monomeric serine racemase (m-SR); conditions: PC-12 cells; compound alone; cited from earlier work
# α7-nAChR [5] = conditions: cited from earlier work
# NMDAR = conditions: cited from earlier work
# α7-nAChR [6] = conditions: cited from earlier work; remark: listed apart in the source
# [7] = system: (S)-nicotine-induced currents in PC-12 cells; conditions: cited from earlier work
# [8] = system: mTOR and related proteins; conditions: cited from earlier work
# [9] = after (R,S)-norketamine 20 mg·kg^−1 intravenous, 10 min
# [10] = after (R,S)-norketamine 20 mg·kg^−1 intravenous, 20 min
# [11] = after (R,S)-norketamine 20 mg·kg^−1 intravenous, 60 min
# [12] = after (R,S)-norketamine 20 mg·kg^−1 intravenous, 240 min
# [13] = time-dependent, significant in the 20- and 60-min samples
# [14] = after (R,S)-ketamine 40 mg·kg^−1 intraperitoneal, 10 min
# [15] = after (R,S)-ketamine 40 mg·kg^−1 intraperitoneal, 30 min
# [16] = after (R,S)-ketamine 40 mg·kg^−1 intraperitoneal, 60 min
# [17] = after (R,S)-ketamine 40 mg·kg^−1 intraperitoneal, 240 min
compound,measurement,setting,value
"N[C@@]1(c2ccccc2Cl)CCC[C@@H](O)C1=O [(2S,6S;2R,6R)-hydroxynorketamine]",Anesthetic activity,anesthesia; rat,no anesthetic effect
same,Anesthetic activity,"anesthesia; rat; ref 9;2R,6R)-Hydroxynorketamine",lacks anesthetic activity
"NC1(c2ccccc2Cl)CCCCC1=O (racemic) [(R,S)-norketamine]",IC50,α3β4-nAChR,9 µM
same,Relative pAkt levels,[1],not impacted
same,"Levels of phosphorylated forms of mTOR, pp70S6K and p4E-BP1",[1]; 20- and 60-min samples,significant increases
same,Increase in pmTOR levels,[1]; 20-min sample,15 fold
same,Increase in pmTOR levels,[1]; 60-min sample,25 fold
same,Increase in pERK level,[1]; significant,~ 6 fold
same,Increase in phosphorylation of mTOR and its downstream targets,[1],> 25 fold
same,Anesthetic activity,anesthesia; rat,produce anesthesia
same,Increase in expression of serine racemase,[2]; 10nM,~ 2 fold
same,Concentration of maximum increase in m-SR protein expression,[2]; 36 h,10 nM
same,"Levels of phosphorylated mTOR, 4E-BP1, p70S6K, ERK1/2 and Akt and of m-SR protein",mTOR pathway,significant increases
same,Concentration above which the increase lost significance,mTOR pathway; 60 min,greater than 250 nM
same,"Rat brain tissue conc. of (2S,6S;2R,6R)-HNK",[3]; [9],16 ± 3 µM/g
same,"Rat brain tissue conc. of (R,S)-norKet",[3]; [9],88 ± 8 µM/g
same,"Rat brain tissue conc. of (2S,6S;2R,6R)-HNK",[3]; [10],16 ± 3 µM/g
same,"Rat brain tissue conc. of (R,S)-norKet",[3]; [10],51 ± 4 µM/g
same,"Rat brain tissue conc. of (2S,6S;2R,6R)-HNK",[3]; [11],8.9 ± 0.7 µM/g
same,"Rat brain tissue conc. of (R,S)-norKet",[3]; [11],20 ± 7 µM/g
same,"Rat brain tissue conc. of (2S,6S;2R,6R)-HNK",[3]; [12],2.1 ± 0.4 µM/g
same,"Rat brain tissue conc. of (R,S)-norKet",[3]; [12],1.0 ± 0.1 µM/g
CN1CCC[C@H]1c1cccnc1 [(S)-nicotine],Effect on expression of m-SR,[4],no effect
same,"Effect on the phosphorylation of pmTOR, p4E-BP1, pp70S6K, pERK1/2 and pAkt","mTOR pathway; (S)-nicotine alone, 2 μM, 1 h",no effect
N[C@]1(c2ccccc2Cl)CCC[C@H](O)C1=O,Activity at the α3β4-nAChR,α3β4-nAChR,not active
same,IC50,α3β4-nAChR,> 300 µM
same,Relative levels of pERK1/2 and pAkt,[1]; increased in the 20- and 60-min samples,did not reach statistical significance
same,Increase in p4E-BP1,[1]; [13],~ 2.0 fold
same,Increase in pmTOR,[1]; [13],~ 2.0 fold
same,Increase in pp70S6K,[1]; [13],~ 2.5 fold
same,Increase in phosphorylation of mTOR and its downstream targets,[1],> 2 fold
same,Increase in expression of serine racemase,[2]; 0.05nM,~ 2 fold
same,Concentration of maximum increase in m-SR protein expression,[2]; 36 h,0.05 nM
same,"Levels of phosphorylated mTOR, 4E-BP1, p70S6K, ERK1/2 and Akt and of m-SR protein",mTOR pathway,significant increases
same,Concentration above which pmTOR increase was markedly reduced,mTOR pathway; 60 min,greater than 1 nM
same,IC50,α7-nAChR [5],< 0.1 µM
same,Activity at the NMDAR,NMDAR,not active
"CNC1(c2ccccc2Cl)CCCCC1=O (racemic) [(R,S)-ketamine]",IC50,α3β4-nAChR,3 µM
same,IC50,α7-nAChR [6],20 µM
same,IC50,[7],5 µM
same,Increase in the phosphorylated forms of mTOR pathway proteins,"[8]; Wistar rats, peaked at 30–60 min post-administration",~ 1.5 fold
same,Increase in pERK,[8],1.5 fold
same,Anesthetic activity,anesthesia; rat,produce anesthesia
same,Increase in expression of serine racemase,[2]; 1000nM,~ 2 fold
same,Concentrations with significant increase in m-SR expression (ANOVA),[2]; 36 h,600 nM and 1000 nM
same,Concentration of maximum increase in m-SR protein expression,[2]; 36 h,600 nM
same,Concentration required to produce the maximum effect on the mTOR pathway and m-SR expression,mTOR pathway,600 nM
same,"Levels of phosphorylated mTOR, 4E-BP1, p70S6K, ERK1/2 and Akt and of m-SR protein",mTOR pathway,significant increases
same,Concentration above which the increase lost significance,mTOR pathway; 60 min,greater than 2000 nM
same,Concentrations eliciting significant increases in protein phosphorylation,mTOR pathway; 60 min,400 to 600 nM
same,"Rat brain tissue conc. of (2S,6S;2R,6R)-HNK",[3]; [14],30 ± 5 µM/g
same,"Rat brain tissue conc. of (R,S)-Ket",[3]; [14],137 ± 6 µM/g
same,"Rat brain tissue conc. of (R,S)-norKet",[3]; [14],21 ± 8 µM/g
same,"Rat brain tissue conc. of (2S,6S;2R,6R)-HNK",[3]; [15],21 ± 8 µM/g
same,"Rat brain tissue conc. of (R,S)-Ket",[3]; [15],52 ± 44 µM/g
same,"Rat brain tissue conc. of (R,S)-norKet",[3]; [15],34 ± 6 µM/g
same,"Rat brain tissue conc. of (2S,6S;2R,6R)-HNK",[3]; [16],25 ± 5 µM/g
same,"Rat brain tissue conc. of (R,S)-Ket",[3]; [16],19 ± 9 µM/g
same,"Rat brain tissue conc. of (R,S)-norKet",[3]; [16],16 ± 4 µM/g
same,"Rat brain tissue conc. of (2S,6S;2R,6R)-HNK",[3]; [17],11 ± 5 µM/g
same,"Rat brain tissue conc. of (R,S)-Ket",[3]; [17],0.6 ± 0.1 µM/g
same,"Rat brain tissue conc. of (R,S)-norKet",[3]; [17],1.3 ± 0.3 µM/g
"N[C@@]1(c2ccccc2Cl)CCC[C@@H](O)C1=O [(2R,6R)-hydroxynorketamine]",Activity at the α3β4-nAChR,α3β4-nAChR,not active
same,IC50,α7-nAChR [5],< 0.1 µM
same,Activity at the NMDAR,NMDAR,not active
CCN1C[C@]2(COC(=O)c3ccccc3N3C(=O)C[C@H](C)C3=O)CC[C@H](OC)[C@@]34[C@@H]5C[C@H]6[C@H](OC)[C@@H]5[C@](O)(C[C@@H]6OC)[C@@](O)([C@@H](OC)[C@H]23)[C@@H]14 [methyllycaconitine],Effect on expression of m-SR,[4],significantly increases
same,"Levels of phosphorylated mTOR, 4E-BP1, p70S6K, ERK1/2 and Akt and of m-SR protein",mTOR pathway,significant increases
